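Cells were grown in 96-well plates and exposed to each compound for 48 hours at five concentrations; endpoints were interpolated linearly between bracketing concentrations, or set to the highest concentration if not reached. At the GI50, growth is halved.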 Calls of active or inactive are those of the source. No stated cut-off is given here; in the data, active = GI50 up to about 1.1 µM and inactive = higher.
How the values were obtained:
Assay in all cases: DTP human tumour cell line panel, 48 h
A549 = system: A549
COLO 205 = system: COLO 205
HCC 2998 = system: HCC 2998
HCT-116 = system: HCT-116
IGROV-1 = system: IGROV-1
KM12 = system: KM12
M14 = system: M14
MOLT-4 = system: MOLT-4
NCI-H23 = system: NCI-H23
NCI-H460 = system: NCI-H460
OVCAR-3 = system: OVCAR-3
OVCAR-4 = system: OVCAR-4
OVCAR-5 = system: OVCAR-5
RPMI-8226 = system: RPMI-8226
SF-268 = system: SF-268
SF-539 = system: SF-539
SK-MEL-2 = system: SK-MEL-2
SK-OV-3 = system: SK-OV-3
NCI/ADR-RES = system: NCI/ADR-RES

Row | SMILES | GI50 (A549) | GI50 (COLO 205) | GI50 (HCC 2998) | GI50 (HCT-116) | GI50 (IGROV-1) | GI50 (KM12) | GI50 (M14) | GI50 (MOLT-4) | GI50 (NCI-H23) | GI50 (NCI-H460) | GI50 (OVCAR-3) | GI50 (OVCAR-4) | GI50 (OVCAR-5) | GI50 (RPMI-8226) | GI50 (SF-268) | GI50 (SF-539) | GI50 (SK-MEL-2) | GI50 (SK-OV-3) | GI50 (NCI/ADR-RES)
1 | C=C1C(=O)OC2(C)C3CCC(C3)C12 (configuration not stated) | > 100 µM (inactive) | 23.1 µM (inactive) | 66.1 µM (inactive) | 37.6 µM (inactive) | > 100 µM (inactive) | 43.4 µM (inactive) | 27.7 µM (inactive) | 34 µM (inactive) | 30.8 µM (inactive) | 33 µM (inactive) | 53.5 µM (inactive) | 54.5 µM (inactive) | > 100 µM (inactive) | 34.4 µM (inactive) | 69.2 µM (inactive) | 98.2 µM (inactive) | 39.4 µM (inactive) | > 100 µM (inactive) | 
2 | Cc1ccc(C(O)c2cnc(C)n2Cc2ccccc2)cc1 (configuration not stated) | > 100 µM (inactive) | > 100 µM (inactive) | > 100 µM (inactive) | > 100 µM (inactive) | > 100 µM (inactive) | > 100 µM (inactive) | > 100 µM (inactive) |  | > 100 µM (inactive) | > 100 µM (inactive) | > 100 µM (inactive) | > 100 µM (inactive) | > 100 µM (inactive) | 46 µM (inactive) | > 100 µM (inactive) | > 100 µM (inactive) | > 100 µM (inactive) | > 100 µM (inactive) | 85.3 µM (inactive)
3 | Cn1c2ccccc2c2nc3ccccc3c(Cl)c21 | > 100 µM (inactive) | > 100 µM (inactive) |  | > 100 µM (inactive) | > 100 µM (inactive) | > 100 µM (inactive) | > 100 µM (inactive) | > 100 µM (inactive) | 36.2 µM (inactive) | > 100 µM (inactive) | > 100 µM (inactive) | > 100 µM (inactive) | 49 µM (inactive) | > 100 µM (inactive) | > 100 µM (inactive) | > 100 µM (inactive) | > 100 µM (inactive) | 35.9 µM (inactive) | > 100 µM (inactive)
4 | ClCCCC1COc2ccccc2O1 (configuration not stated) | > 100 µM (inactive) | > 100 µM (inactive) | > 100 µM (inactive) | 45.7 µM (inactive) | 46.3 µM (inactive) |  | > 100 µM (inactive) | > 100 µM (inactive) | > 10 µM (inactive) | > 100 µM (inactive) | > 100 µM (inactive) | > 100 µM (inactive) | 55.8 µM (inactive) |  | 96.6 µM (inactive) | > 100 µM (inactive) |  | 8.81 µM (inactive) | > 100 µM (inactive)
5 | COc1cc(CNC2=NCCC2)cc(OC)c1OC | > 100 µM (inactive) | > 100 µM (inactive) | > 100 µM (inactive) | 39.6 µM (inactive) | > 100 µM (inactive) | > 10 µM (inactive) | > 100 µM (inactive) | > 100 µM (inactive) | > 100 µM (inactive) | > 100 µM (inactive) | > 100 µM (inactive) | > 100 µM (inactive) | > 100 µM (inactive) |  | > 100 µM (inactive) | > 100 µM (inactive) |  | > 100 µM (inactive) | > 100 µM (inactive)
6 | COc1cc(O)c(C(=O)CC(C)=O)c(OC)c1 | > 100 µM (inactive) | > 100 µM (inactive) | > 100 µM (inactive) | > 100 µM (inactive) | > 100 µM (inactive) | > 100 µM (inactive) | > 100 µM (inactive) | > 100 µM (inactive) | > 100 µM (inactive) | > 100 µM (inactive) | > 100 µM (inactive) | > 100 µM (inactive) | > 100 µM (inactive) | > 100 µM (inactive) | > 100 µM (inactive) | > 100 µM (inactive) | > 100 µM (inactive) | > 100 µM (inactive) | 
7 | CS(=O)(=O)OCOS(C)(=O)=O | > 100 µM (inactive) | 75.3 µM (inactive) | > 100 µM (inactive) | > 100 µM (inactive) | > 100 µM (inactive) | > 100 µM (inactive) | > 100 µM (inactive) | 22.9 µM (inactive) | 69 µM (inactive) | 39.8 µM (inactive) | > 100 µM (inactive) | > 100 µM (inactive) | > 100 µM (inactive) | 31.9 µM (inactive) |  | > 100 µM (inactive) | > 100 µM (inactive) | > 100 µM (inactive) | > 100 µM (inactive)
8 | CCC1(O)C(=O)OCc2c1cc1n(c2=O)Cc2cc3c(N)cccc3nc2-1 (configuration not stated) [RS-9-Aminocamptothecin] | 0.0354 µM (active) | 0.741 µM (active) | 0.177 µM (active) | 0.0171 µM (active) | 0.327 µM (active) | 0.24 µM (active) | 0.0174 µM (active) | < 0.01 µM (active) | < 0.0109 µM (active) | < 0.0106 µM (active) | 0.277 µM (active) | 0.345 µM (active) | 0.19 µM (active) | 0.0416 µM (active) | < 0.01 µM (active) | < 0.014 µM (active) | 0.288 µM (active) | 0.0264 µM (active) | 0.0118 µM (active)
